This note sets out measurements from patent US11834463B2, “High affinity macrocyclic FKB51-inhibitors for treatment of psychiatric disorders” (priority 2020, dated 2023).

Experiment [1] concerns the target FKBP12 (Homo sapiens, UniProt P62942). Nature of the experiment: competitive fluorescence polarization assay, binding to FKBP12. The protocol:
(§1) All macrocyclic compounds were tested in a competitive fluorescence polarization assay for binding towards FKBP51 as well as the homologs FKBP12, FKBP12.6 and FKBP52 (Table 1).
(§2) Example 8: […] of the Macrocyclic FKBP51 Ligands by SPPS
(Polarisation of emitted light reports the rotation of a fluorescent probe.)

Experiment [2] concerns the target FKBP12.6 (Homo sapiens, UniProt P68106). Nature of the experiment: competitive fluorescence polarization assay, binding to FKBP12.6. The protocol:
as §1, §2

For experiment [3], the target named is T1, FKBP51FK1 (Homo sapiens, UniProt Q13451).
T1 sequence (Q13451 42-130 limits assumed): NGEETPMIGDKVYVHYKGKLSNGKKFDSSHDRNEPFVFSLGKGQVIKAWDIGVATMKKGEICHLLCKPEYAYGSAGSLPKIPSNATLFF
Nature of the experiment: biochemical. The protocol:
as §1, §2

Where [4] appears, read: Table 1, competitive Fluorescence Polarization Assay, read-out: Ki [nM] FKBP12.
The mark [5] stands for this setting: Table 1, competitive Fluorescence Polarization Assay, read-out: Ki [nM] FKBP12.6.
The mark [6] stands for this setting: Ki [nM] FKBP51FK1, Table 1, competitive Fluorescence Polarization Assay.
[7] abbreviates: affinity, same values as Table 2 FKBP51FK1.

SMILES strings stand for the structures. Like-named read-outs stand apart in the source and are kept apart here. Bounds are passed on as bounds.

Chain of FKBP12 (P62942 whole entry): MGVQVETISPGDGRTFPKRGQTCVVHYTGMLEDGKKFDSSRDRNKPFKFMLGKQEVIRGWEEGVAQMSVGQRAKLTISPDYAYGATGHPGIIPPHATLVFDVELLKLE
Chain of FKBP12.6 (P68106 whole entry): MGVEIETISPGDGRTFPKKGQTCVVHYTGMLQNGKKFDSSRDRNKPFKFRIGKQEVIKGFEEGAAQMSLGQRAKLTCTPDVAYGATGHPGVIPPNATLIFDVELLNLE

For `COc1ccc(CC[C@H]2OC(=O)[C@@H]3CCCCN3C(=O)[C@@H](C3CCCCC3)c3cc(OC)c(OC)c(c3)OCCCOc3cccc2c3)cc1OC` [Compound 58], the Ki (in general, a measure of affinity in units of concentration, obtained from inhibition or displacement) came out at 401 nM in experiment [1] (setting [4]), 87 nM in experiment [2] (setting [5]) and 54 nM in experiment [3] (setting [6]).
In the case of `COc1ccc(CC[C@H]2OC(=O)[C@@H]3CCCCN3C(=O)[C@@H](C3CCCCC3)c3cc(OC)c(OC)c(c3)OCCC(=O)CCOc3cccc2c3)cc1OC` [Compound 61a], the Ki stood at 38 nM in experiment [1] (setting [4]), 22 nM in experiment [2] (setting [5]) and 8 nM in experiment [3] (setting [6]).
In the same order, the values of `COc1ccc(CC[C@H]2OC(=O)[C@@H]3CCCCN3C(=O)[C@@H](C3CCCCC3)c3cc(OC)c(OC)c(c3)OCCCC(=O)COc3cccc2c3)cc1OC` [Compound 61b] are 58 nM, 37 nM and 28 nM.
For `COc1ccc(CC[C@H]2OC(=O)[C@@H]3CCCCN3C(=O)[C@@H](C3CCCCC3)c3cc(OC)c(OC)c(c3)OCCOCC(=O)CCOc3cccc2c3)cc1OC` [Compound 62] the same measures were 39 nM, 57 nM and 23 nM.
Turning to `COc1ccc(CC[C@H]2OC(=O)[C@@H]3CCCCN3C(=O)[C@@H](C3CCCCC3)CC(O)C(O)COCCOc3cccc2c3)cc1OC` (stereo partly drawn) [Compound 82, (2R,5S,12R)-12-cyclohexyl-2-[2-(3,4-dimethoxyphenyl)ethyl]-14,15-dihydroxy-3,17,20-trioxa-10-azatricyclo[19.3.1.0^5,10]pentacosa-1(25),21,23-triene-4,11-dione], the “binding to FKBP12 (in words)” value in experiment [1] was “did not bind”. For the same compound, the “binding to FKBP12.6 (in words)” value in experiment [2] is recorded as “did not bind”. In addition, the Ki in experiment [3] (Ki, bound to FKBP51, text b114) worked out at 1200 nM.
With `COc1ccc(CC[C@H]2OC(=O)[C@@H]3CCCCN3C(=O)[C@@H](C3CCCCC3)NC(=O)CNC(=O)COc3cccc2c3)cc1OC` [Compound 83, (2R,5S,12R)-12-cyclohexyl-2-[2-(3,4-dimethoxyphenyl)ethyl]-3,19-dioxa-10,13,16-triazatricyclo[18.3.1.0^5,10]tetracosa-1(24),20,22-triene-4,11,14,17-tetrone], the Ki in experiment [1] (Table 2, read-out: FKBP12 Ki) is more than 80000 nM; in experiment [2] (Table 2, read-out: FKBP12.6 Ki), more than 80000 nM; in experiment [3] (setting [7]), 2300 nM.
For `COc1ccc(CC[C@H]2OC(=O)[C@@H]3CCCCN3C(=O)[C@@H](C3CCCCC3)NC(=O)C(C)(C)NC(=O)COc3cccc2c3)cc1OC` [Compound 85, (2R,5S,12R)-12-cyclohexyl-2-[2-(3,4-dimethoxyphenyl)ethyl]-15,15-dimethyl-3,19-dioxa-10,13,16-triazatricyclo[18.3.1.0^5,10]tetracosa-1(24),20,22-triene-4,11,14,17-tetrone], the Ki in experiment [1] (Table 2, read-out: FKBP12 Ki) is more than 80000 nM; in experiment [2] (Table 2, read-out: FKBP12.6 Ki), more than 80000 nM; in experiment [3] (setting [7]), 290 nM.
Take `COc1ccc(CC[C@H]2OC(=O)[C@@H]3CCCCN3C(=O)[C@@H](C3CCCCC3)NC(=O)C3(CCC3)NC(=O)COc3cccc2c3)cc1OC` [Compound 87, (2′R,5'S,12′R)-12′-cyclohexyl-2′-[2-(3,4-dimethoxyphenyl)ethyl]-3′, 19′-dioxa-10′, 13′, 16′-triazaspiro[cyclobutane-1,15′-tricyclo[18.3.1.0^5,10° ]tetracosane]-1′(24′),20′, 22′-triene-4′, 11′, 14′, 17′-tetrone]: the Ki in experiment [1] (Table 2, read-out: FKBP12 Ki) was more than 80000 nM; in experiment [2] (Table 2, read-out: FKBP12.6 Ki), more than 80000 nM; in experiment [3] (setting [7]), 400 nM.
Turning to `COc1ccc(CC[C@H]2OC(=O)[C@@H]3CCCCN3C(=O)[C@@H](C3CCCCC3)NC(=O)C3(CCCC3)NC(=O)COc3cccc2c3)cc1OC` [Compound 88, (2′R,5'S,12′R)-12′-cyclohexyl-2′-[2-(3,4-dimethoxyphenyl)ethyl]-3′, 19′-dioxa-10′, 13′, 16′-triazaspiro[cyclopentane-1,15′-tricyclo[18.3.1.0^5,10]tetracosane]-1′(24′),20′, 22′-triene-4′, 11′, 14′, 17′-tetrone], the Ki in experiment [1] (Table 2, read-out: FKBP12 Ki) was more than 80000 nM; in experiment [2] (Table 2, read-out: FKBP12.6 Ki) it was more than 80000 nM; in experiment [3] (setting [7]), 1300 nM.
Turning to `COc1ccc(CC[C@H]2OC(=O)[C@@H]3CCCCN3C(=O)[C@@H](C3CCCCC3)NC(=O)CN(C)C(=O)COc3cccc2c3)cc1OC` [Compound 89, (2R,5S,12R)-12-cyclohexyl-2-[2-(3,4-dimethoxyphenyl)ethyl]-16-methyl-3,19-dioxa-10,13,16-triazatricyclo[18.3.1.0^5,10]tetracosa-1(24),20,22-triene-4,11,14,17-tetrone], the Ki in experiment [1] (Table 2, read-out: FKBP12 Ki) was more than 80000 nM; in experiment [2] (Table 2, read-out: FKBP12.6 Ki), more than 80000 nM; in experiment [3] (setting [7]), 3100 nM.
Turning to `COc1ccc(CC[C@H]2OC(=O)[C@@H]3CCCCN3C(=O)[C@@H](C3CCCCC3)NC(=O)[C@H](C)NC(=O)COc3cccc2c3)cc1OC` [Compound 91, (2R,5S,12R,15S)-12-cyclohexyl-2-[2-(3,4-dimethoxyphenyl)ethyl]-15-methyl-3,19-dioxa-10,13,16-triazatricyclo[18.3.1.0^5,10]tetracosa-1(24),20,22-triene-4,11,14,17-tetrone], the Ki in experiment [1] (Table 2, read-out: FKBP12 Ki) is more than 80000 nM; in experiment [2] (Table 2, read-out: FKBP12.6 Ki) it was more than 80000 nM. For the same compound, in experiment [3], the “affinity (in words)” value is “bound more weakly”.
Take `COc1ccc(CC[C@H]2OC(=O)[C@@H]3CCCCN3C(=O)[C@@H](C3CCCCC3)NC(=O)[C@@H]3CCCN3C(=O)COc3cccc2c3)cc1OC` [Compound 92, (9S,12R,19S,22R)-12-cyclohexyl-22-[2-(3,4-dimethoxyphenyl)ethyl]-2,21-dioxa-5,11,14-triazatetracyclo[21.3.1.0^5,9.0^14,19]heptacosa-1(26),23(27),24-triene-4,10,13,20-tetrone]: the Ki in experiment [1] (Table 2, read-out: FKBP12 Ki) is more than 80000 nM; in experiment [2] (Table 2, read-out: FKBP12.6 Ki), more than 80000 nM. In addition, in experiment [3], the “affinity (in words)” value was “substantially reduced affinity”.
For the compound `COc1ccc(CC[C@H]2OC(=O)[C@@H]3CCCCN3C(=O)[C@@H](C3CCCCC3)NC(=O)CCNC(=O)COc3cccc2c3)cc1OC` [Compound 93, (2R,5S,12R)-12-cyclohexyl-2-[2-(3,4-dimethoxyphenyl)ethyl]-3,20-dioxa-10,13,17-triazatricyclo[19.3.1.0^5,10]pentacosa-1(25),21,23-triene-4,11,14,18-tetrone], the Ki in experiment [1] (Table 2, read-out: FKBP12 Ki) is more than 80000 nM; in experiment [2] (Table 2, read-out: FKBP12.6 Ki), more than 80000 nM; in experiment [3] (FKBP51FK1 Ki [μM], Table 2, [a] standard error from three, [c] error from two independent measurements), 7400 nM. Besides, the “affinity (in words)” value in experiment [3] is recorded as “reduced affinity”.
As to `COc1ccc(CC[C@H]2OC(=O)[C@@H]3CCCCN3C(=O)[C@@H](C3CCCCC3)NC(=O)[C@@H]3CCC[C@H]3NC(=O)COc3cccc2c3)cc1OC` [Compound 94, (2R,5S,12R,15R,19R)-12-cyclohexyl-2-[2-(3,4-dimethoxyphenyl)ethyl]-3,23-dioxa-10,13,20-triazatetracyclo[22.3.1.0^5,10.0^15,19]octacosa-1(28),24,26-triene-4,11,14,21-tetrone], the Ki is more than 80000 nM in experiment [1] (Table 2, read-out: FKBP12 Ki); more than 80000 nM in experiment [2] (Table 2, read-out: FKBP12.6 Ki); 1800 nM in experiment [3] (setting [7]).
With `COc1cccc([C@@H](CCc2ccc(OC)c(OC)c2)OC(=O)[C@@H]2CCCCN2C(=O)[C@H](c2cc(OC)c(OC)c(OC)c2)C2CCCCC2)c1` [Compound A1, reference compound], the Ki amounted to 222 nM in experiment [1] (setting [4]), 199 nM in experiment [2] (setting [5]) and 94 nM in experiment [3] (setting [6]).
Turning to `COc1ccc(CC[C@@H](OC(=O)[C@@H]2CCCCN2C(=O)[C@H](c2cc(OC)c(OC)c(OC)c2)C2CCCCC2)c2cccc(OCC(=O)O)c2)cc1OC` [SAFit1, reference compound], the Ki in experiment [1] (Table 2, read-out: FKBP12 Ki) amounted to 163 ± 9 nM; in experiment [2] (Table 2, read-out: FKBP12.6 Ki) it was 19 ± 2 nM; in experiment [3] (read-out: FKBP51FK1 Ki, Table 2, [a] standard error from three, [c] error from two independent measurements), 4 ± 1 nM.
